Results reported in patent publication US9012641B2, “Crystalline forms of Prasugrel salts” (Teva Pharmaceuticals Industries Ltd., priority 2010, dated 2015).
Where a name gives a salt, the structure may show the parent alone.

Assay: Storage of the sample in an open Petri dish at room conditions, reanalysed on HPLC
Format: physicochemical
Conditions: room conditions (20-25° C., relative humidity 20-30%), 1 month, HPLC purity before storage 99.94%
Method: The sample was left in an open Petri dish at room conditions (20-25° C., relative humidity 20-30%) for 1 month and then reanalyzed on HPLC giving purity of 99.84%.

HPLC purity after storage: 99.84%
SMILES: CC(=O)Oc1cc2c(s1)CCN(C(C(=O)C1CC1)c1ccccc1F)C2 (stereo not shown) [form II of prasugrel hydrobromide, Prasugrel hydrobromide]
